Five compounds from US20080139608A1, “2,6,8, Trisubstituted 1-deazapurines and their different uses” (Universiteit Leiden, priority 2006, published 2008) can be followed below.

The target of data set [1] is T1, human adenosine A1 receptor (Homo sapiens, UniProt P30542).
T1 construct: expressed in transfected cells; host or cells: CHO cells
T1 sequence (P30542 1-326): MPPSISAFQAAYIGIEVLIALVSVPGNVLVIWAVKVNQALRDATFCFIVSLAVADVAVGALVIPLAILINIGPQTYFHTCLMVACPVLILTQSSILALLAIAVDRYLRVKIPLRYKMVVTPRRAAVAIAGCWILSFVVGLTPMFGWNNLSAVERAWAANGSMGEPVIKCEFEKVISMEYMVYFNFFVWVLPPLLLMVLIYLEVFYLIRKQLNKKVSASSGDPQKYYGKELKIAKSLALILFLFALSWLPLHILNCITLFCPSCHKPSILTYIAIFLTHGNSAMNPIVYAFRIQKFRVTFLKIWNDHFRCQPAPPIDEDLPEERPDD
Nature of the data set: Radioligand binding assay, displacement of specific [3H]DPCPX binding. The note with it: CHO cells expressing human adenosine A1 receptors; n = 3; read-out: A1 Ki ± SEM, displacement of specific [3H]DPCPX binding. Here is the method:
Radioligand Binding Studies [^3H]DPCPX was purchased from Amersham. All compounds made were tested in radioligand binding assays to determine their affinities at the human adenosine A1 receptor. The affinities at the A1 receptors were determined on CHO cells expressing the human receptors, using [^3H]DPCPX as the radioligand according to a previously described method.^11
Data Analysis Competition binding data were fit to a single-site binding model and plotted using the software package Prism (Graph Pad, San Diego, Calif., USA). The Cheng-Prusoff equation Ki=IC50/(1+[I]/Kd) was used to calculate Ki values, where Ki is the affinity constant for the competing ligand, [I] is the concentration of the free radioligand, and Kd is the affinity constant for the radioligand.

Turning to `CCCc1nc2c(-c3ccccc3)cc(-c3ccccc3)nc2[nH]1` [Compound 6, 2,6-Diphenyl-8-propyl-1-deazapurine], the Ki in data set [1] came to 2.45 ± 0.23 nM.
`CC(C)c1nc2nc(-c3ccccc3)cc(-c3ccccc3)c2[nH]1` [Compound 7, 2,6-Diphenyl-8-isopropyl-1-deazapurine]: in data set [1], the Ki is 0.61 ± 0.04 nM.
For the compound `CC(C)CCc1nc2nc(-c3ccccc3)cc(-c3ccccc3)c2[nH]1` [Compound 9, 2,6-Diphenyl-8-isopentyl-1-deazapurine], the melting point was in the range of 196 to 197 °C.
As for `c1ccc(-c2cc(-c3ccccc3)c3[nH]c(C4CCCC4)nc3n2)cc1` [Compound 11, 8-Cyclopentyl-2,6-diphenyl-1-deazapurine], the Ki in data set [1] was determined as 0.62 ± 0.3 nM.
In the case of `c1ccc(-c2cc(-c3ccccc3)c3[nH]c(C4CCCCC4)nc3n2)cc1` [Compound 12, 2,6-Diphenyl-8-cyclohexyl-1-deazapurine], in data set [1], the Ki came out at 0.9 ± 0.21 nM.
